Here are results for 16 compounds from PubChem BioAssay (NCI).

Broadly, the TGI is the concentration giving total growth inhibition. High values mean less potent growth arrest, low ones more potent growth arrest. Broadly, the GI50 is the concentration that inhibits growth by half.

Among the test systems are COLO 205 colon; BT-549 breast; OVCAR-4 ovarian; HCT-116 colon; CAKI-1 renal; SK-MEL-28 melanoma; IGROV1 ovarian; HOP-62 NSCLC; A549 NSCLC; EKVX NSCLC.
Common to all, as to assay: DTP human tumour cell line panel, 48 h

Structures are written as SMILES.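 Each compound was tested at five concentrations against cells in 96-well plates for 48 hours. The concentration for 50% growth inhibition is given as GI50. Definition used: TGI = concentration required for complete inhibition of growth.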

Regarding `O=C1CN2Cc3cc(N4CCOCC4)ccc3N=C2N1`, the total growth inhibition concentration (TGI) with COLO 205 colon, in the experiment on BT-549 breast, in the experiment with OVCAR-4 ovarian, in the experiment on HCT-116 colon, with CAKI-1 renal and with SK-MEL-28 melanoma was above 100 µM in each case. For the same compound, the concentration for total growth inhibition (TGI) with IGROV1 ovarian and with HOP-62 NSCLC was above 100 µM throughout.

Take `O=[N+]([O-])c1cccc2nc3ccccc3c(NCCc3cccc[n+]3[O-])c12`: the TGI with COLO 205 colon is below 0.0168 µM; in the experiment on BT-549 breast it was 0.0917 µM; with OVCAR-4 ovarian it was 0.212 µM; in the experiment on CAKI-1 renal, 0.901 µM; in the experiment with SK-MEL-28 melanoma, below 0.01 µM; with A549 NSCLC, below 0.0476 µM. The TGI in the experiment with HOP-62 NSCLC worked out at 0.245 µM; with EKVX NSCLC, 0.121 µM.

In the case of `CCCCc1c2c(nc3c1CCCC3O)/C(=C/c1ccccc1)CCC2` (stereo unspecified), the total growth inhibition concentration (TGI) in the experiment on COLO 205 colon was 33.4 µM; with OVCAR-4 ovarian, above 100 µM; in the experiment on HCT-116 colon, above 100 µM; in the experiment on SK-MEL-28 melanoma, 94.3 µM; in the experiment on IGROV1 ovarian, above 100 µM; in the experiment on A549 NSCLC, above 100 µM. Moreover, the figures for the TGI with HOP-62 NSCLC and with EKVX NSCLC were above 100 µM and 97.4 µM, respectively.

As for `NCCCNc1nc2ccccc2c2c(=O)c3cc(C(F)(F)F)ccc3sc12`, the GI50 was 7.3 µM in the experiment with BT-549 breast, 1.51 µM with CAKI-1 renal and 1.81 µM with SK-MEL-28 melanoma. The TGI with BT-549 breast was determined as 27.1 µM; in the experiment with CAKI-1 renal it was 2.84 µM; in the experiment on SK-MEL-28 melanoma, 3.23 µM.

With `CCOC(=O)CCC(NC(=O)c1ccc(Oc2nc3ccc(C(F)(F)F)cc3nc2-c2ccccc2)cc1)C(=O)OCC` (stereo unspecified), the concentration for total growth inhibition (TGI) in the experiment on COLO 205 colon is above 100 µM; in the experiment on OVCAR-4 ovarian it was above 83 µM; in the experiment on HCT-116 colon, above 100 µM; with CAKI-1 renal it was 26.9 µM; in the experiment with SK-MEL-28 melanoma, above 100 µM; in the experiment on IGROV1 ovarian, above 100 µM. The results for the TGI with A549 NSCLC, in the experiment with HOP-62 NSCLC and with EKVX NSCLC were above 100 µM, above 89.5 µM and 64 µM, respectively.

`CN(NC(=O)CCCl)C1=NCCN1`: the total growth inhibition concentration (TGI) in the experiment on COLO 205 colon, in the experiment on BT-549 breast, with OVCAR-4 ovarian, in the experiment with HCT-116 colon, in the experiment on SK-MEL-28 melanoma and in the experiment on IGROV1 ovarian was above 100 µM in each case. In addition, the TGI in the experiment with A549 NSCLC, in the experiment on HOP-62 NSCLC and with EKVX NSCLC was above 100 µM in each case.

For `COc1cccc(NC(=S)Nn2c(C)nc3ccccc3c2=O)c1`, the TGI with COLO 205 colon, in the experiment on OVCAR-4 ovarian, with HCT-116 colon, in the experiment on CAKI-1 renal, in the experiment on SK-MEL-28 melanoma and in the experiment with IGROV1 ovarian was above 100 µM throughout. In addition, the TGI in the experiment on A549 NSCLC and in the experiment with HOP-62 NSCLC was above 100 µM each time.

`O=c1[nH]c(Nc2cccc(C(F)(F)F)c2)nc2nc[nH]c12`: the TGI with COLO 205 colon, in the experiment with OVCAR-4 ovarian, in the experiment on HCT-116 colon, with CAKI-1 renal, in the experiment on SK-MEL-28 melanoma and in the experiment with IGROV1 ovarian was above 100 µM each time. Besides, the TGI in the experiment with A549 NSCLC, in the experiment on HOP-62 NSCLC and in the experiment on EKVX NSCLC was above 100 µM in each case.

Take `CCCCC(C)C1CCC2(C)C=CC(=O)C(C)=C2C1O` (stereo unspecified): the TGI with COLO 205 colon, in the experiment on OVCAR-4 ovarian, in the experiment on HCT-116 colon, with CAKI-1 renal, in the experiment on SK-MEL-28 melanoma and in the experiment on IGROV1 ovarian was above 100 µM in each case. Moreover, the TGI in the experiment with A549 NSCLC, in the experiment with HOP-62 NSCLC and in the experiment on EKVX NSCLC was above 100 µM throughout.

Consider `CCCn1c(SCC)c2ccccc2c1-c1nc(F)nc(F)n1`, for which the TGI in the experiment with COLO 205 colon, in the experiment on OVCAR-4 ovarian, in the experiment with HCT-116 colon, in the experiment with CAKI-1 renal, in the experiment on SK-MEL-28 melanoma and in the experiment on A549 NSCLC was above 100 µM each time. In addition, the TGI in the experiment on HOP-62 NSCLC and in the experiment with EKVX NSCLC was above 100 µM each time.

In the case of `Clc1ccc(SCCSCCCCCCCCCCSCCSc2ccc(Cl)cc2)cc1`, the total growth inhibition concentration (TGI) in the experiment with COLO 205 colon, in the experiment on CAKI-1 renal, with SK-MEL-28 melanoma, in the experiment on IGROV1 ovarian, in the experiment with A549 NSCLC and with HOP-62 NSCLC was above 100 µM in each case. The compound also returned a TGI in the experiment with EKVX NSCLC above 100 µM.

As for `COC(OC)c1cccc2c1C(=O)CCC1(O)c3ccccc3C1C2` (stereo unspecified), the TGI in the experiment on COLO 205 colon, in the experiment with OVCAR-4 ovarian, in the experiment with HCT-116 colon, with SK-MEL-28 melanoma, with IGROV1 ovarian and with A549 NSCLC was above 100 µM in each case. The concentration for total growth inhibition (TGI) with HOP-62 NSCLC and with EKVX NSCLC was above 100 µM in each case.

`COc1ccc(C2C3C(=O)C=CC(=O)C3[C@@H]2C)cc1OC` (stereo partly specified): the TGI in the experiment with COLO 205 colon, in the experiment with OVCAR-4 ovarian, in the experiment with HCT-116 colon, with CAKI-1 renal, in the experiment on SK-MEL-28 melanoma and with IGROV1 ovarian was above 100 µM in each case. Also, the total growth inhibition concentration (TGI) in the experiment on A549 NSCLC, with HOP-62 NSCLC and in the experiment with EKVX NSCLC was above 100 µM each time.

On to `Nc1c(-c2nc3ccccc3s2)c2ccc([N+](=O)[O-])cc2c(=O)n1-c1cccc(C(=O)O)c1`, for which the total growth inhibition concentration (TGI) was above 100 µM in the experiment on COLO 205 colon; 64.3 µM with BT-549 breast; above 100 µM in the experiment on OVCAR-4 ovarian; 45.1 µM with HCT-116 colon; 80.3 µM in the experiment with CAKI-1 renal; 59.8 µM in the experiment on SK-MEL-28 melanoma. In the experiment with A549 NSCLC, this compound yielded a total growth inhibition concentration (TGI) above 100 µM.

Turning to `O=C(/C=C/c1ccc(Cl)cc1)Oc1ccc(/C=C2\CCCCC2=O)cc1`, the total growth inhibition concentration (TGI) with COLO 205 colon, in the experiment with OVCAR-4 ovarian, with HCT-116 colon, in the experiment on CAKI-1 renal, with SK-MEL-28 melanoma and with IGROV1 ovarian was above 100 µM in each case. For the same compound, the TGI in the experiment with A549 NSCLC, with HOP-62 NSCLC and in the experiment with EKVX NSCLC was above 100 µM in each case.

`O=C1Nc2cccc(Cl)c2/C1=C\c1c(Cl)nc2sccn12`: the TGI in the experiment with COLO 205 colon is above 100 µM; with BT-549 breast, 74.9 µM; in the experiment on HCT-116 colon, above 100 µM; in the experiment on CAKI-1 renal it was above 100 µM; in the experiment on SK-MEL-28 melanoma, above 100 µM; in the experiment with IGROV1 ovarian, above 100 µM. The TGI was above 100 µM in the experiment with A549 NSCLC, 33.8 µM in the experiment on HOP-62 NSCLC and above 100 µM in the experiment on EKVX NSCLC.
